According to publication PMC5520057, “Modulation of nongenomic activation of PI3K signalling by tetramerization of N-terminally-cleaved RXRα” (Nature Communications, 2017):
Positions count from the first letter of the chain named. “And” between values parts separate entries of the source, which are not always exact repeats. Identical values can stand only once.

How the values were obtained:
[1] = tested on: RXRα-LBD/R316E; assay: Non-denaturing gel electrophoresis, R316E mutant; assay type: biochemical, human; details: 9-cis-RA (0.5 μM) or K-80003 (20 μM), 3 h at 4 °C
Procedure: The human RXRα LBD (residues Thr223 to Thr462) cloned as an N-terminal histidine-tagged fusion protein in pET15b expression vector was expressed in Escherichia coli BL21 strain (Stratagene). After sonication, cell extract was incubated with the His60 Ni Superflow resin, and His-tagged RXRα-LBD-resin complexes were washed, eluted and concentrated to 5 mg ml^−1 for subsequent trails. For crystallization experiment, bovine thrombin (Sigma) was used to cleave the His tag from the purified His-tagged RXRα-LBD. The resulting His tag was removed on the Resource-Q column (GE) using 0.1–1 M NaCl gradient and the Tris-Cl pH 8 buffer. RXRα-LDB was further purified using gel filtration on a Superdex 200 2660 column (GE) pre-equilibrated with the 75 mM NaCl, 20 mM Tris-Cl buffer (pH 8).

[2] = tested on: RXRα-LBD; assay: BS3 crosslinking, transfected RXRα-LBD; assay type: cell-based; details: HepG2 cells; 9-cis-RA (10^−7 M) or K-80003 (5 × 10^−6 M) for 6 h; BS3 1 mM; western blotting
Procedure: (§1) Cell lysates were then prepared and incubated with bis[sulfosuccinimidyl] suberate (BS3, Pierce) dissolved in dimethyl sulfoxide to a final concentration of 1 mM. The reactions were stopped with protein gel loading buffer. Samples were resolved by SDS/PAGE in 8% acrylamide gels and protein bands were visualized by western blotting.

[3] = tested on: RXRα-A/B / RXRα-LBD interaction; assay: coIP, N/C interaction RXRα-A/B with RXRα-LBD; assay type: cell-based; details: HepG2 cells, coIP with anti-HA antibody; one of two similar experiments
[4] = tested on: RXRα-A/B / RXRα-LBD/W305Q interaction; assay: coIP, N/C interaction RXRα-A/B with RXRα-LBD/W305Q; assay type: cell-based; details: HEK293T cells; 9-cis-RA (10^−7 M)
Procedure: (§4) For coIP assay[29], HEK293T cells grown in 10 cm dishes were transfected with various plasmids. Cells were lysed in 1 ml of lysis buffer (20 mM Tris (pH 7.5), 150 mM NaCl, 1% Triton X-100, 1 mM EDTA, 30 mM NaF, 2 mM sodium pyrophosphate) with a cocktail of proteinase inhibitors (Roche). Lysates were incubated with the appropriate antibody for 12 h at 4 °C and subsequently incubated with protein A-Sepharose beads for 1 h. The immunoprecipitates were collected and washed three times with lysis buffer. The protein–antibody complexes recovered on beads were subjected to immunoblotting using appropriate antibodies after separation by SDS-PAGE. Input represents 5% of cell lysates used for coIP assays.

[5] = tested on: p85α-BCR / RXRα-LBD interaction; assay: coIP, p85α-BCR with RXRα-LBD; assay type: cell-based; details: 9-cis-RA (10^−7 M), one of two similar experiments
Procedure: (§2) For coIP assay, HEK293T cells grown in 10 cm dishes were transfected with various plasmids. Cells were lysed in 1 ml of lysis buffer (20 mM Tris (pH 7.5), 150 mM NaCl, 1% Triton X-100, 1 mM EDTA, 30 mM NaF, 2 mM sodium pyrophosphate) with a cocktail of proteinase inhibitors (Roche). Lysates were incubated with the appropriate antibody for 12 h at 4 °C and subsequently incubated with protein A-Sepharose beads for 1 h. The immunoprecipitates were collected and washed three times with lysis buffer. The protein–antibody complexes recovered on beads were subjected to immunoblotting using appropriate antibodies after separation by SDS-PAGE. Input represents 5% of cell lysates used for coIP assays.

[6] = tested on: p85α-BCR / tRXRα interaction; assay: coIP, p85α-BCR with tRXRα; assay type: cell-based; details: 9-cis-RA (10^−7 M), one of two similar experiments
Procedure: as §4

[7] = tested on: p85α-BCR / RXRα-LBD/W305Q interaction; details: HEK293T cells; with or without 9-cis-RA (10^−7 M)
Procedure: as §2

[8] = tested on: tRXRα/R316E; assay: BS3 crosslinking, tRXRα/R316E; assay type: cell-based; details: MCF-7 cells, 9-cis-RA (10^−7 M) or K-80003 (5 × 10^−6 M) for 6 h
Procedure: as §1

[9] = tested on: tRXRα/F313A; assay: BS3 crosslinking, tRXRα/F313A; assay type: cell-based; details: MCF-7 cells, 9-cis-RA (10^−7 M) or K-80003 (5 × 10^−6 M) for 6 h
Procedure: as §1

[10] = tested on: p85α / tRXRα/R316E interaction; assay: coIP, p85α with tRXRα/R316E; assay type: cell-based; details: HEK293T cells; TNFα (10 ng ml^−1) or 9-cis-RA (10^−7 M) for 1 h; coIP anti-Myc
Procedure: as §4

[11] = tested on: p85α / tRXRα/F313A interaction; assay: coIP, p85α with tRXRα/F313A; assay type: cell-based; details: HEK293T cells; 9-cis-RA (10^−7 M) for 1 h; coIP anti-Myc
Procedure: as §4

[12] = tested on: p85α-ΔiSH2 / tRXRα interaction; assay: p85α-ΔiSH2 interaction with tRXRα; assay type: cell-based
Procedure: as §1

[13] = tested on: RXRα; design: method as in PMID 10970886, PMID 9811539; details: cited from earlier work
Text: In addition to acting as heterodimeric partners of some nuclear receptors, RXRα can form homodimers[18] that trigger specific signalling pathways. A unique property of RXRα is an auto-repressive mechanism involving homotetramerization, in which a ‘dimer-of-dimers’ pack in a bottom-to-bottom manner, with H12 from each monomer invading (and invaded by) a neighbouring domain across the tetramer interface. This pairwise ‘exchange of arms’ enables each monomer to bind to and occlude the coregulator-binding groove of its neighbour. Some molecules hav ...

[14] = molecular target: Myc-RXRα-LBD (human); assay: cross-linking; cells (HepG2, HEK293T, MCF-7) transfected for 24 h, treated with 9-cis-RA (10^-7 M) and/or K-80003 (5 x 10^-6 M) for 6 h; lysates or fractions incubated with 1 mM BS3, SDS-PAGE and western blotting
[15] = tested on: p85α / tRXRα interaction; assay: coIP, p85α with tRXRα; assay type: cell-based; details: HEK293T cells; TNFα (10 ng ml^−1) for 1 h; coIP anti-Myc
Procedure: as §4

[16] = tested on: tRXRα; assay: Subcellular localization of tRXRα, immunostaining; assay type: cell-based; details: MCF-7 cells cotransfected with p85α; TNFα (10 ng ml^−1) for 30 min; confocal microscopy
Procedure: (§3) Cells mounted on glass slides or tumour tissue frozen sections (5-μm-thick) were washed with PBS and fixed in 4% paraformaldehyde (PFA) for 15 min and permeabilized with PBS containing 0.1% Triton X-100 for 15 min. Fixed cells or tumour tissues were blocked with 5 mg ml^−1 BSA in PBS for 30 min at room temperature, followed with incubation with primary antibodies for 3 h and secondary antibodies at room temperature for 1 h and co-stained with 4′6′-diamidino-2-phenylindole (DAPI) to visualize nuclei. The images were taken under an LSM-510 confocal laser scanning microscope system (Carl Zeiss).

[17] = tested on: RXRα; assay: Subcellular localization of RXRα, immunostaining; assay type: cell-based; details: MCF-7 cells; TNFα (10 ng ml^−1) for 30 min; confocal microscopy
Procedure: as §3

[18] = tested on: tRXRα/R316E; assay: Subcellular localization of tRXRα/R316E, immunostaining; assay type: cell-based; details: HEK293T cells; TNFα (10 ng ml^−1) for 30 min; confocal microscopy
Procedure: as §3

[19] = molecular target: the molecule itself; assay: cross-linking; cells (HepG2, HEK293T, MCF-7) transfected for 24 h, treated with 9-cis-RA (10^-7 M) and/or K-80003 (5 x 10^-6 M) for 6 h; lysates or fractions incubated with 1 mM BS3, SDS-PAGE and western blotting
[20] = molecular target: the molecule itself; assay: crystal structure; RXRα-LBD (0.35 mM) cocrystallized with K-80003, 2.6 Å; tetramer (dimer of dimers) with six K-80003 bound
[21] = molecular target: the molecule itself; assay: native gel or EMSA; purified RXRα-LBD or mutant (0.2 μg/μl) incubated with DMSO, 9-cis-RA (0.5 μM) and/or K-80003 (20 μM) for 3 h at 4 °C; 8% non-denaturing PAGE, Coomassie staining

Question: Which “effect on oligomeric state of RXRα-LBD/R316E” value [1] does the source give for CC1=C(/C=C/C(C)=C\C=C\C(C)=C\C(=O)O)C(C)(C)CCC1 [9-cis-RA, 9-cis-retinoic acid] here?
Answer: exhibited mainly as a tetramer independent of the presence of either 9-cis-RA or K-80003

Question: And the “crosslinked RXRα-LBD species” value [2]?
Answer: only monomer and homodimer

Question: What about the “effect on RXRα-A/B / RXRα-LBD interaction” value [3] of the same molecule?
Answer: inhibited by 9-cis-RA in a dose-dependent manner

Question: And the “effect on RXRα-A/B / RXRα-LBD/W305Q interaction” value [4]?
Answer: could still bind to the RXRα-A/B protein in a 9-cis-RA sensitive manner similar to the wild-type RXRα-LBD

Question: What about the “effect on p85α-BCR interaction with RXRα-LBD” value [5] of the same molecule?
Answer: enhancing effect of 9-cis-RA on p85α-BCR interaction

Question: What about the “effect on p85α-BCR interaction with tRXRα” value [6] of the same molecule?
Answer: enhancing effect of 9-cis-RA on p85α-BCR interaction

Question: What about the “binding of RXRα-LBD/W305Q with p85α-BCR” value [7] of the same molecule?
Answer: impaired the binding of RXRα-LBD with p85α-BCR either in the presence or absence of 9-cis-RA

Question: What about the “oligomeric state of tRXRα/R316E” value [8] of the same molecule?
Answer: strong tetrameric species of tRXRα/R316E but not tRXRα/F313A independent of the presence of 9-cis-RA or K-80003

Question: What about the “oligomeric state of tRXRα/F313A” value [9] of the same molecule?
Answer: strong tetrameric species of tRXRα/R316E but not tRXRα/F313A independent of the presence of 9-cis-RA or K-80003

Question: What about the “interaction of tRXRα/R316E with p85α” value [10] of the same molecule?
Answer: could not bind to p85α either in the absence or presence of TNFα or 9-cis-RA

Question: What about the “interaction of tRXRα/F313A with p85α” value [11] of the same molecule?
Answer: constitutive and 9-cis-RA-independent interaction with p85α

Question: And the “tRXRα interaction with p85α-ΔiSH2 with cotransfected RXRα-A/B” value ([12]; HEK293T cells, 9-cis-RA (10^−7 M) for 6 h, coIP anti-Myc)?
Answer: inhibited 9-cis-RA-induced interaction of tRXRα with p85α-ΔiSH2

Question: What about the effect on homotetramers [13] of the same molecule?
Answer: dissociation of homotetramers into homodimers

Question: For O=C(CCCCCCC(=O)ON1C(=O)CC(S(=O)(=O)O)C1=O)ON1C(=O)CC(S(=O)(=O)O)C1=O (stereo not shown) [BS3, bis[sulfosuccinimidyl] suberate], which “9-cis-RA-induced tRXRα interaction with p85α-ΔiSH2” value ([12]; HepG2 cells, K-80003 and/or 9-cis-RA, then BS3 crosslinking, western blotting) is on record?
Answer: potently inhibited

Question: Which stoichiometry N [14] does the source give for Myc-RXRα-LBD (domain or fragment) here?
Answer: 2 and 4

Question: Which “interaction of tRXRα/R316E with p85α” value [10] does the source give for TNFα here?
Answer: could not bind to p85α either in the absence or presence of TNFα or 9-cis-RA

Question: And the “interaction of tRXRα with full-length p85α” value [15]?
Answer: tRXRα interacted with the full-length p85α in the presence of TNFα

Question: And the “tRXRα found in the cytoplasm of cells” value [16]?
Answer: > 65%

Question: And the “effect on nuclear localization of RXRα” value [17]?
Answer: no effect on the nuclear localization of RXRα

Question: What about the “colocalization of tRXRα/R316E with p85α” value [18] of the same molecule?
Answer: lack of colocalization of the tRXRα/R316E mutant with p85α in the absence or presence of TNFα

B1: Myc-tRXRα (domain or fragment, human, UniProt P19793 81-462, looked up)
chain: TTPTLGFSTGSPQLSSPMNPVSSSEDIKPPLGLNGVLKVPAHPSGNMASFTKHICAICGDRSSGKHYGVYSCEGCKGFFKRTVRKDLTYTCRDNKDCLIDKRQRNRCQYCRYQKCLAMGMKREAVQEERQRGKDRNENEVESTSSANEDMPVERILEAELAVEPKTETYVEANMGLNPSSPNDPVTNICQAADKQLFTLVEWAKRIPHFSELPLDDQVILLRAGWNELLIASFSHRSIAVKDGILLATGLHVHRNSAHSAGVGAIFDRVLTELVSKMRDMQMDKTELGCLRAIVLFNPDSKGLSNPAEVEALREKVYASLEAYCKHKYPEQPGRFAKLLLRLPALRSIGLKCLEHLFFFKLIGDTPIDTFLMEMLEAPHQMT
notes: retinoid X receptor alpha lacking the N-terminal 80 amino acids (deletion of 60 plus an additional 20 amino acids); also called truncated RXRα; N-terminally-cleaved RXRα; source: HEK293T, HepG2, transfected, in lysate
Question: For B1, which “stoichiometry N” value [19] is on record?
Answer: 4

B2: Myc-tRXRα/R316E (domain or fragment, human, UniProt P19793 81-462, looked up)
chain: B1 chain with R236E
notes: retinoid X receptor alpha lacking the N-terminal 80 amino acids; source: MCF-7, HEK293T, transfected, in lysate
Question: For B2, which “stoichiometry N” value [19] is on record?
Answer: 4

B3: RXRα-LBD (His tag cleaved, for crystallization) (domain or fragment, human, UniProt P19793 223-462, looked up)
chain: TSSANEDMPVERILEAELAVEPKTETYVEANMGLNPSSPNDPVTNICQAADKQLFTLVEWAKRIPHFSELPLDDQVILLRAGWNELLIASFSHRSIAVKDGILLATGLHVHRNSAHSAGVGAIFDRVLTELVSKMRDMQMDKTELGCLRAIVLFNPDSKGLSNPAEVEALREKVYASLEAYCKHKYPEQPGRFAKLLLRLPALRSIGLKCLEHLFFFKLIGDTPIDTFLMEMLEAPHQMT
Question: With B3 as the molecule, how does the “stoichiometry N” value [20] read?
Answer: 4

B4: His-RXRα-LBD (domain or fragment, human, UniProt P19793 223-462, looked up)
chain: B3 chain
Question: Which “stoichiometry N” value [21] does the source give for B4 here?
Answer: 2 and 4

B5: His-RXRα-LBD/R316E (domain or fragment, human, UniProt P19793 223-462, looked up)
chain: B3 chain with R94E
notes: source: bacteria expressed, purified
Question: For B5, which “stoichiometry N” value [21] is on record?
Answer: 4
